Article PMC10622577, “Structural basis for stabilisation of the RAD51 nucleoprotein filament by BRCA2” (Nature Communications, 2023)

Key:
[1] = tested on: wild-type RAD51 NPFs; assay: EMSA of TR2 titration on wild-type RAD51 nucleoprotein filaments (NPFs); assay type: binding, human
Procedure: (§1) To assess RAD51 nucleoprotein (NPF) formation, wild-type and mutant RAD51 proteins were incubated with DNA in buffer: 25 mM HEPES pH 7.5, 150 mM NaCl, 2 mM DTT, 2 mM ATP, 5 mM CaCl2 for 15 minutes at room temperature. For filament binding of the TR2 peptide or His6-MBP-TR2 protein, the RAD51 NPFs were incubated with TR2 for further 5 minutes at room temperature. For filament binding of BRC4, the BRC4 peptide was pre-mixed with RAD51 for 10 minutes at room temperature before addition of DNA. For experiments with mono-streptavidin (mSA)-capped DNA, mSA (Sigma) was added in 5× molar excess of biotin labels for 15 minutes at room temperature prior to the addition of RAD51. Concentrations are provided in figures and DNA sequences for each experiment are reported in Supplementary Table 1.
(§2) Before electrophoresis, samples were mixed with a 0.5:1 volume of 50% (w/v) sucrose solution and analysed on a pre-run 0.5% (w/v) agarose gel in 0.5× TB buffer at 35 V for 2.5 hours at 4 °C. DNA was visualised by excitation of the fluorescent tag or, in the case of unlabelled DNA, by SYBR Gold staining. Gels were imaged in a Typhoon FLA9000 by excitation at 473 nm for fluorescein-labelled DNA or SYBR Gold-stained gels, 532 nm excitation for Cy3-labelled DNA or 635 nm excitation for Cy5-labelled DNA.
(§3) Supplementary table 1. DNA oligos and peptides
(§4) Oligos Size (nt) Sequence (5’ – 3’)
(§5) D184A […] (forward), […]

[2] = tested on: RAD51 D184A NPFs; assay: EMSA of TR2 titration on RAD51 D184A NPFs; assay type: binding, human
Procedure: as §1, §2, §3, §4, §5

[3] = tested on: RAD51 D184A, D187A NPFs; assay: EMSA of TR2 titration on RAD51 D184A, D187A NPFs; assay type: binding, human
Procedure: as §1, §2, §3, §4
(§6) D184A […] (forward),
(§7) D184A, D187A […] (forward),
EMSA, SPR, CryoEM (micrographs,
Panels C, D (ssDNA) 60 FAM-[…]
Panels C, D (dsDNA) 60 FAM-[…],
Panels E, F (ssDNA) 60 Biotin-[…]
Panels E, F (dsDNA) 60 Biotin-[…],
(§8) Supplementary figs. 3, 4 (ssDNA) 60 Biotin-[…]
(§9) Supplementary figs. 3, 4 (dsDNA) 60 Biotin-[…],
(§10) Panel A (ssDNA) 32 Cy5-[…]
(§11) Panel B (dsDNA) 50 […]-Cy3,
(§12) Panel B (ssDNA) 60 Biotin-[…]-
(§13) Panel B (dsDNA) 60 Biotin,
Panel C (ssDNA) 32 Biotin-[…]-Biotin
Panel C (dsDNA) 50 Biotin-[…]-Cy3,
Supplementary fig. 5A 50 […]-Cy3,
Supplementary fig. 5B (ssDNA) 32 Cy5-[…]-Biotin,
Supplementary fig. 5B (ssDNA) 32 Biotin-[…]-Biotin
Supplementary fig. 5B (dsDNA) 50 Biotin-[…],
Panels B, C, D (ssDNA) 60 FAM-[…]
Panels F, G (ssDNA) 60 […]

[4] = tested on: RAD51 D184A NPFs; assay: SPR of TR2 binding to RAD51 D184A NPFs; parameters: species or system human; conditions: n = 3
Procedure: (§14) We investigated further the effect of the acidic patch mutations on TR2 binding using surface plasmon resonance (SPR). We developed an SPR assay whereby increasing amounts of TR2 peptide were added to RAD51 NPFs that had been assembled on biotinylated DNA coupled to a streptavidin chip (Supplementary Fig. 3A, Supplementary Table 1). […] We used the same SPR assay to assess the effect of the mutations on the ability of BRC4 to disrupt an established filament (Supplementary Fig. 4A, Supplementary Table 1).
All SPR experiments were performed using a Biacore T200 instrument and an S-series SA (Streptavidin) sensor chip. A single chip was used to immobilise biotinylated single- and double-stranded DNA in buffer: 25 mM HEPES pH 7.4, 100 mM NaCl, 1 mM EDTA. ssDNA and dsDNA were immobilised in different channels to a signal of 120 RU and 250 RU, respectively. […]
For the BRCA2 TR2 titration series, blank-subtracted sensorgrams were used to extract the maximum response accumulated after each TR2 injection. TR2 response accumulation was corrected to account for differences in RAD51 filament formation between runs, by multiplying the maximum response by a scale factor calculated as the ratio between mean RAD51 filament accumulation on each DNA substrate and the mean RAD51 accumulated for each mutant for each triplicate. […]

[5] = tested on: RAD51 D184A, D187A NPFs; assay: SPR of TR2 binding to RAD51 D184A, D187A NPFs; parameters: species or system human
Procedure: as §14
All SPR experiments were performed using a Biacore T200 instrument and an S-series SA (Streptavidin) sensor chip. A single chip was used to immobilise biotinylated single- and double-stranded DNA in buffer: 25 mM HEPES pH 7.4, 100 mM NaCl, 1 mM EDTA. ssDNA and dsDNA were immobilised in different channels to a signal of 120 RU and 250 RU, respectively.
All binding experiments were performed in CMA buffer: 25 mM HEPES pH 7.4, 100 mM NaCl, 2 mM DTT, 2 mM ATP, 5 mM CaCl2, 5 mM MgCl2. 1 μM RAD51 (wild-type, D184A or D184A, D187A mutant proteins) was injected for 120 seconds followed by buffer for 120 seconds at a flow rate of 10 μl/min. TR2 or BRC4 peptides were then injected in a concentration titration series of 0.1, 0.25, 0.5, 0.75, 1, 2, 3, 5, 7.5, 10 and 15 μM for 120 seconds at a flow rate of […] followed by a dissociation time of 240 seconds. After each injection of BRCA2 peptide, the sensor chip was regenerated with buffer comprising of CMA buffer with 1 M NaCl for 120 seconds at a flow rate of 100 μl/min. All experiments were performed in triplicate.
For the BRCA2 TR2 titration series, blank-subtracted sensorgrams were used to extract the maximum response accumulated after each TR2 injection. TR2 response accumulation was corrected to account for differences in RAD51 filament formation between runs, by multiplying the maximum response by a scale factor calculated as the ratio between mean RAD51 filament accumulation on each DNA substrate and the mean RAD51 accumulated for each mutant for each triplicate. The first experiment of the triplicate series for binding of TR2 to the D184A, D187A RAD51 NPF on dsDNA was discounted due to a failed peptide injection.
All graph plotting and statistical analysis was performed using Prism 9.3.1 (GraphPad). […] Data for each mutant on each substrate were fitted with a non-linear one-phase exponential decay.
as §3, §4, §6, §7
EMSA, SPR, CryoEM (micrographs, […]
as §8, §9, §10, §11, §12, §13
Panel C (ssDNA) 32 Biotin-[…]-Biotin […]

[6] = EMSA Fig. 1C, authors' response to reviewers
[7] = EMSA, ssDNA compared with dsDNA
[8] = ss- and dsDNA, 25 mM HEPES pH 7.5, 150 mM NaCl, 2 mM ATP, 5 mM CaCl2, TR2 5 min, room temperature, ssDNA performed twice, dsDNA once

**Q.** With “DDQKNCKKRRALDFLSRLPLPPPVSPICTFVSPAAQKAFQPPRSCGTKY [TR2, BRCA2 TR2 peptide spanning amino acids 3260 to 3308]” as the sequence, how does the “TR2 binding to wild-type RAD51 NPFs (filament formation and mobility)” value ([1]; 25 mM HEPES pH 7.5, 150 mM NaCl, 2 mM DTT, 2 mM ATP, 5 mM CaCl2, RAD51 + DNA 15 min, then TR2 5 min, room temperature, 0.5% agarose, fluorescein-labelled 60 nt ss- or dsDNA, ssDNA performed twice, dsDNA once) read?
**A.** Its value is “enhancement of filament formation accompanied by formation of larger species of reduced electrophoretic mobility”.

**Q.** What about the “bundling of TR2-bound filaments in the gel” value [1, 6] of the same sequence?
**A.** Its value is “do not show bundling”.

**Q.** And the “reduction in TR2 binding, ssDNA versus dsDNA filaments” value [2, 7]?
**A.** Its value is “especially pronounced for filaments formed on ssDNA”.

**Q.** What about the “TR2 binding relative to wild-type” value [2, 8] of the same sequence?
**A.** The value was “reduction in TR2 binding proportional to the decrease in charge at RAD51’s acidic patch”.

**Q.** And the “residual TR2 binding” value [3, 6]?
**A.** Its value is “retain a degree of binding”.

**Q.** And the “reduction in TR2 binding, ssDNA versus dsDNA filaments” value [3, 7]?
**A.** Its value is “especially pronounced for filaments formed on ssDNA”.

**Q.** What about the “TR2 binding relative to wild-type” value [3, 8] of the same sequence?
**A.** Its value is “reduction in TR2 binding proportional to the decrease in charge at RAD51’s acidic patch”.

**Q.** And the “TR2 binding by SPR relative to wild-type” value ([4]; Biacore T200, streptavidin chip, biotinylated ss- or dsDNA, CMA buffer pH 7.4, 1 μM RAD51, TR2 0.1-15 μM, 120 s)?
**A.** Its value is “clear reduction in TR2 binding”.

**Q.** And the “impact of mutation on TR2 binding by SPR, ssDNA versus dsDNA” value ([4]; ssDNA compared with dsDNA)?
**A.** The value was “stronger for NPFs formed on ssDNA”.

**Q.** What about the “TR2 binding by SPR relative to D184A mutant” value ([5]; D187A compared with single D184A, n = 3) of the same sequence?
**A.** The value was “weaker binding compared with the single D184A mutant”.

**Q.** And the “TR2 binding by SPR relative to wild-type” value ([5]; D187A, Biacore T200, streptavidin chip, biotinylated ss- or dsDNA, CMA buffer pH 7.4, 1 μM RAD51, TR2 0.1-15 μM, 120 s, n = 3 (one dsDNA run discounted, failed injection))?
**A.** The value was “clear reduction in TR2 binding”.

**Q.** And the “residual TR2 binding” value ([5]; D187A, SPR Fig. 1E, authors' response to reviewers)?
**A.** The value was “retain a degree of binding”.

**Q.** What about the “impact of mutation on TR2 binding by SPR, ssDNA versus dsDNA” value ([5]; D187A, ssDNA compared with dsDNA, n = 3) of the same sequence?
**A.** Its value is “stronger for NPFs formed on ssDNA”.
